This is an account of results in US11090319B2, “Therapeutic uses of pharmaceutical compositions comprising cyclic boronic acid ester derivatives” (Melinta Subsidiary Corp., priority 2010, dated 2021).

Like-named read-outs stand apart in the source and are kept apart here.

Series [1] in a line: Single dose pharmacokinetics and oral bioavailability in rats, Table 15. It is filed as in vivo, Sprague-Dawley (SD) rats. The procedure:
An in vivo model can be used to evaluate the single dose pharmacokinetic properties and absolute oral bioavailability of a test compound. As described more specifically below, a test compound is administered to Sprague-Dawley (SD) rats either intravenously or orally in a crossover study design and the resulting pharmacokinetic properties and oral bioavailability are measured. […] Plasma samples (0.3 ml) were collected from jugular vein cannula at 0.17, 0.33, 0.47, 0.58, 0.68, 0.75, 1, 2, 3, 4, and 6 hrs after the dosing. […] The samples were mixed and centrifuged for 30 min at 3000×g. 150 μL of supernatant was removed and added to 450 μL of water. HPLC-mass spectrometry: An Agilent 1100HPLC pump, HTC PAL autosampler and a Sciex […] mass spectrometer were used for separation and quantification. Compound 62 and its internal standard were detected using +ESI. Compound 5 and its internal standard were detected using -ESI. LC/MS/MS: 1) Column: Chromolith FastGradient RP-18e, 50×2 mm; 2) Mobile phase A: Aqueous Water with 0.1% TFA, Orgainic phase B: Acetonitrile with 0.1% TFA; Flow Rate: 600 μL/min; Injection volume: 10 μL; […] Plasma concentrations were modeled using WinNonlin® (Pharsight Corp, Mountain View, Calif.). In this experiment, three male Sprague Dawley rats were given Compound 5 by intravenous or oral route. At designated time points, bloods were collected and analyzed. […] Plasma samples were collected at designated time points and analyzed for the presence of Compound 5. […] Male rats (non-fasted) were orally administered 50 mg/kg of the prodrug Compound 62.

For series [2], the system named is strains expressing class A ESBLs. It is filed as cell-based. The method, then: Selected β-lactamase inhibitors were also tested for their ability to potentiate the monobactam tigemonam.
The target of a further series is KPC-3, lysate of EC1007 (Klebsiella pneumoniae, UniProt Q9F663, H272Y). Nature of the series: Inhibition of biapenem hydrolysis by bacterial lysate.
Sequence of KPC-3, lysate of EC1007 (Q9F663 whole entry H272Y, looked up): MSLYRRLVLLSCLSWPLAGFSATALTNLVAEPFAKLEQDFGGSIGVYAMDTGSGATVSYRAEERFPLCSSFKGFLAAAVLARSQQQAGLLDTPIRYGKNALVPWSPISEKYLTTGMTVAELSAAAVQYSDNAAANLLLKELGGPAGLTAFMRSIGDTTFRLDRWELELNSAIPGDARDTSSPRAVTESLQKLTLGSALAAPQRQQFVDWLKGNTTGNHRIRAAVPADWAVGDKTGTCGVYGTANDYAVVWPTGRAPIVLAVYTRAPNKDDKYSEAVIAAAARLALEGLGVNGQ

Usually half-life stands for how long it takes for the measured level to halve. A word on the AUC: it is the area under the concentration-time curve, a measure of exposure. As a reminder, the Cmax is the maximum level reached in the sampled fluid or tissue. In series [1] (Sprague-Dawley, rat, plasma, male SD rats, IV, 20 mg/kg), `O=C(O)C[C@@H]1CC[C@H](NC(=O)Cc2cccs2)B(O)O1` [Compound 5, 2-((3R,6S)-2-hydroxy-3-(2-(thiophen-2-yl)acetamido)-1,2-oxaborinan-6-yl)acetic acid] gave a half-life of 1.56 h. The compound also had a half-life in series [1] (Sprague-Dawley, rat, plasma, male SD rats, PO, 50 mg/kg) of 1.55 h. Moreover, the AUC in series [1] (Sprague-Dawley, rat, plasma, male SD rats, PO, 50 mg/kg, read-out: AUC) came out at 810 ng·h/mL. For the same compound, the CL/F in series [1] (Sprague-Dawley, rat, plasma, male SD rats, PO, 50 mg/kg, read-out: CL/F (converted)) is 1010 mL/min/kg. Further, in series [1] (Sprague-Dawley, rat, plasma, male SD rats, PO, 50 mg/kg, read-out: Cmax), the Cmax was found to be 290 ng/mL. In series [1] (male SD rats, IV, 20 mg/kg), the AUC turned out to be 12150 ng·h/mL, the CL/F worked out at 27.5 mL/min/kg and the Cmax was determined as 19820 ng/mL. In series [1] (male SD rats, IV, 50 mg/kg), this compound returned an AUC of 28190 ng·h/mL, a CL/F of 29.5 mL/min/kg, a Cmax of 45930 ng/mL and a T1/2 of 4.53 h. The oral absorption entry in series [1] (rats, 50 mg/kg orally in saline) is given as “not orally absorbed”. For the same compound, in series [1] (rats, intravenous 20 or 50 mg/kg), the PK linearity entry was “linear PK”. Also, in series [2], the “MPC4 CTX-M-14 KP1005” value is listed as “Z (key: X: MPC@4 of less than 2 μg/mL; Y: MPC@4 of 2 μg/mL to 10 μg/mL; Z: MPC@4 of greater than 10 μg/mL)”, the “MPC4 CTX-M-15 KP1009” value is on record as “Z (key: X: MPC@4 of less than 2 μg/mL; Y: MPC@4 of 2 μg/mL to 10 μg/mL; Z: MPC@4 of greater than 10 μg/mL)”, the “MPC4 SHV-5 ec308” value is reported as “Z (key: X: MPC@4 of less than 2 μg/mL; Y: MPC@4 of 2 μg/mL to 10 μg/mL; Z: MPC@4 of greater than 10 μg/mL)” and the “MPC4 SHV-12 KP1010” value is listed as “Z (key: X: MPC@4 of less than 2 μg/mL; Y: MPC@4 of 2 μg/mL to 10 μg/mL; Z: MPC@4 of greater than 10 μg/mL)”. For the same compound, in series [2], the “MPC4 SHV-18 KP1012” value is “Z (key: X: MPC@4 of less than 2 μg/mL; Y: MPC@4 of 2 μg/mL to 10 μg/mL; Z: MPC@4 of greater than 10 μg/mL)”, the “MPC4 TEM-10 EC1009” value is recorded as “Z (key: X: MPC@4 of less than 2 μg/mL; Y: MPC@4 of 2 μg/mL to 10 μg/mL; Z: MPC@4 of greater than 10 μg/mL)”, the “MPC4 TEM-10 ec302” value is “Z (key: X: MPC@4 of less than 2 μg/mL; Y: MPC@4 of 2 μg/mL to 10 μg/mL; Z: MPC@4 of greater than 10 μg/mL)” and the “MPC4 TEM-26 ec304” value was “Z (key: X: MPC@4 of less than 2 μg/mL; Y: MPC@4 of 2 μg/mL to 10 μg/mL; Z: MPC@4 of greater than 10 μg/mL)”.
For orientation: IC50 means the concentration that inhibits the measured activity by half. Read a low IC50 as inhibition by little substance. On KPC-3, lysate of EC1007, `Cl.N[C@H]1CCC(CC(=O)O)OB1O` (stereo partly drawn) [Compound 7, 2-((3R)-3-amino-2-hydroxy-1,2-oxaborinan-6-yl)acetic acid hydrochloride] showed an IC50 above 4.77 µM.
